According to patent US12162857B2, “Antiviral compounds” (priority 2022, dated 2024):

tested on: Human RSV-A (“Long” strain); assay: RSV-A assay: CPE in Hep-2 cells, ATPlite readout; assay type: cell-based; settings: MOI 0.1, 5-day incubation
Text: Hep-2 cells, (originally derived from tumors grown in irradiated-cortisonised weanling rats that had been injected with epidermoid carcinoma tissue from a person's larynx, but later found to be indistinguishable from HeLa cells by PCR DNA analysis), were used for the culturing of genotype A, “Long” strain RSV. Flasks were inoculated with RSV and viral stocks were collected once cytopathic effect (CPE) was greater than 90%. Viral stocks in 25% sucrose media were snap frozen using liquid nitrogen to increase viral stability. Viral stock titers were quantified by tissue culture infectious dose 50% (TCID50) using 8,000 cells per well and 3-fold viral dilutions across a 96-well plate, cultured for 4 days. Viral stock titers were also quantified by a plaque forming unit assay, as described elsewhere.
Following extensive parameter testing, the final assay is run as follows: Hep-2 cells are seeded into the inner 60 wells of a 96-well plate at 8,000 cells per well in a volume of 50 μL using Growth Media (DMEM without phenol red, 1% L-Glut, 1% Penn/Strep, 1% nonessential amino acids, 10% heat-inactivated FBS). 2-fold serial dilutions of control and test compounds are added to the wells in duplicate in a total volume of 25 μL. Viral stock is then added to the wells at a multiplicity of infection (MOI) of 0.1 in a volume of 25 μL, bringing the total volume of each well to 100 μL. The MOI is calculated using the PFU/mL, or TCID50 if unavailable. Each 96-well plate has a control column of 6 wells with cells and virus but no compound (negative control, max CPE), a column with cells but no compound or virus (positive control, minimum CPE), and a column with no cells or virus or compound (background plate/reagent control). The control wells with cells but no virus are given an additional 25 μL of growth media containing an equal quantity of sucrose as those wells receiving the viral stock in order to keep consistent in media and volume conditions. The outer wells of the plate are filled with 125 μL of moat media (DMEM, 100 Penn/Strep) to act as a thermal and evaporative moat around the test wells. Following a 5-day incubation period, the plates are read using ATPlite (50 uL added per well), which quantifies the amount of ATP (a measure of cell health) present in each well. Assay plates are read using the Envision luminometer. […] EC50 ranges are as follows: A<0.01 μM; B 0.01-0.05 μM; C>0.05 μM.

Row | EC50 [nM] | Compound
1 | < 10 | COc1cc(C(=O)NC[C@@](O)(c2ccccc2)c2cc(C(C)(C)O)c(Cl)c(-c3cc(Cl)c(F)cc3F)n2)cc2cn(C3CC3)nc12 [Example 144]

same assay, conditions: human respiratory syncytial virus, 120 h, MOI 0.1, 5-day incubation

Row | EC50 [nM] | Compound
2 | < 10 | COc1cc(C(=O)NC[C@](O)(c2cc(C3(C(N)=O)CC3)c(F)c(-c3ccc(F)c(Cl)c3F)n2)C2CC2)cc2cn(C(F)F)nc12 (single isomer, unassigned) [Example 21]
3 | < 10 | COc1cc(C(=O)NC[C@](O)(c2cc(C3(C(N)=O)CC3)c(F)c(-c3ccc(F)c(Cl)c3F)n2)C2CC2)cc2cn(C3(F)CC3)nc12 (single isomer, unassigned) [Example 22]
4 | > 50 | Cc1nc2c(OC3CC3)cc(C(=O)NC[C@](O)(c3cc(C(O)(C(F)(F)F)C(F)(F)F)c(F)c(-c4ccc(F)cc4)n3)C3CC3)cc2cc1Cl (single isomer, unassigned) [Example 48]
5 | 10 to 50 | COc1cc(C(=O)NC[C@](O)(c2cc(C3(C(N)=O)CC3)c(F)c(-c3ccc(F)c(Cl)c3F)n2)C2CC2)cc2cn(C3CC3)nc12 (single isomer, unassigned) [Example 20]
6 | < 10 | COc1cc(C(=O)NC[C@](O)(c2cc(C(C)(C)O)c(F)c(-c3ccc(F)cc3)n2)C2CC2)cc2cn(C3CC3)nc12 [Example 1]
7 | 10 to 50 | NC(=O)C1(c2cc([C@@](O)(CNC(=O)c3cc(OC4CC4)c4nn(C(F)F)cc4c3)C3CC3)nc(-c3cc(Cl)c(F)cc3F)c2F)CC1 (single isomer, unassigned) [Example 18]
8 | < 10 | CC(C)(O)c1cc([C@@](O)(CNC(=O)c2cc(OC3CC3)c3nn(C4(F)CC4)cc3c2)C2CC2)nc(-c2ccc(F)cc2)c1F [Example 5]
9 | < 10 | COc1cc(C(=O)NC[C@@](O)(c2ccccc2)c2cc(C(C)(C)O)c(F)c(-c3ccc(F)c(Cl)c3Cl)n2)cc2cn(C3CC3)nc12 [Example 67]
10 | > 50 | COc1cc(C(=O)NC[C@](O)(c2cc(C3(O)CNC3)c(F)c(-c3cc(Cl)c(F)cc3F)n2)C2CC2)cc2cn(C3CC3)nc12 [Example 170]
11 | 10 to 50 | COc1cc(C(=O)NC[C@](O)(c2cc(C(O)(C(F)(F)F)C(F)(F)F)c(F)c(-c3ccc(F)cc3)n2)C2CC2)cc2cn(C3CC3)nc12 (single isomer, unassigned) [Example 47]
12 | < 10 | COc1cc(C(=O)NC[C@@](O)(c2ccccc2)c2cc(C(C)(C)O)c(F)c(-c3cc(Cl)c(F)cc3F)n2)cc2cn(C(F)F)nc12 [Example 62]
13 | 10 to 50 | COc1cc(C(=O)NC[C@](O)(c2cc(C3(C(N)=O)CC3)c(F)c(-c3cc(Cl)c(F)cc3F)n2)C2CC2)cc2cn(C(F)F)nc12 (single isomer, unassigned) [Example 9]
14 | < 10 | COc1cc(C(=O)NC[C@](O)(c2cc(C(C)(C)O)c(F)c(-c3cc(Cl)c(F)cc3F)n2)C2CC2)cc2cc(Cl)c(C)nc12 [Example 57]
15 | < 10 | COc1cc(C(=O)NC[C@@](O)(c2ccccc2)c2cc(C(C)(C)O)c(F)c(-c3cccc(Cl)c3Cl)n2)cc2cn(C3CC3)nc12 [Example 79]

tested on: HMPV A2 TN/94-49; assay: HMPV antiviral assay: LLC-MK2 cells, ATP-Lite readout; assay type: cell-based; settings: LLC-MK2, 168 h, MOI 0.005, 7 days incubation
In short: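 LLC-MK2 cells (5,000/well) were infected in suspension with HMPV A2 TN/94-49 at MOI 0.005 in serum-free OptiMEM with 2 μg/mL final TPCK-trypsin, then incubated for 7 days at 37 °C. Compounds were tested in duplicate from 2 μM in 10-point 2.5-fold dilutions. ATP-Lite luminescence, normalised to virus-only and cells-only controls as % cell health, gave EC50 by four-parameter fit.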

Row | EC50 [nM] | Compound
16 | > 1000 | COc1cc(C(=O)NC[C@](O)(c2cc(C3(C(N)=O)CC3)c(F)c(-c3ccc(F)c(Cl)c3F)n2)C2CC2)cc2cn(C(F)F)nc12 (single isomer, unassigned) [Example 21]
17 | > 1000 | COc1cc(C(=O)NC[C@](O)(c2cc(C3(C(N)=O)CC3)c(F)c(-c3ccc(F)c(Cl)c3F)n2)C2CC2)cc2cn(C3(F)CC3)nc12 (single isomer, unassigned) [Example 22]
18 | > 1000 | Cc1nc2c(OC3CC3)cc(C(=O)NC[C@](O)(c3cc(C(O)(C(F)(F)F)C(F)(F)F)c(F)c(-c4ccc(F)cc4)n3)C3CC3)cc2cc1Cl (single isomer, unassigned) [Example 48]
19 | > 1000 | COc1cc(C(=O)NC[C@](O)(c2cc(C3(C(N)=O)CC3)c(F)c(-c3ccc(F)c(Cl)c3F)n2)C2CC2)cc2cn(C3CC3)nc12 (single isomer, unassigned) [Example 20]
20 | < 1000 | COc1cc(C(=O)NC[C@](O)(c2cc(C(C)(C)O)c(F)c(-c3ccc(F)cc3)n2)C2CC2)cc2cn(C3CC3)nc12 [Example 1]
21 | > 1000 | NC(=O)C1(c2cc([C@@](O)(CNC(=O)c3cc(OC4CC4)c4nn(C(F)F)cc4c3)C3CC3)nc(-c3cc(Cl)c(F)cc3F)c2F)CC1 (single isomer, unassigned) [Example 18]
22 | < 1000 | CC(C)(O)c1cc([C@@](O)(CNC(=O)c2cc(OC3CC3)c3nn(C4(F)CC4)cc3c2)C2CC2)nc(-c2ccc(F)cc2)c1F [Example 5]
23 | < 1000 | COc1cc(C(=O)NC[C@@](O)(c2ccccc2)c2cc(C(C)(C)O)c(F)c(-c3ccc(F)c(Cl)c3Cl)n2)cc2cn(C3CC3)nc12 [Example 67]
24 | > 1000 | COc1cc(C(=O)NC[C@](O)(c2cc(C3(O)CNC3)c(F)c(-c3cc(Cl)c(F)cc3F)n2)C2CC2)cc2cn(C3CC3)nc12 [Example 170]
25 | > 1000 | COc1cc(C(=O)NC[C@](O)(c2cc(C(O)(C(F)(F)F)C(F)(F)F)c(F)c(-c3ccc(F)cc3)n2)C2CC2)cc2cn(C3CC3)nc12 (single isomer, unassigned) [Example 47]
26 | < 1000 | COc1cc(C(=O)NC[C@@](O)(c2ccccc2)c2cc(C(C)(C)O)c(F)c(-c3cc(Cl)c(F)cc3F)n2)cc2cn(C(F)F)nc12 [Example 62]
27 | > 1000 | COc1cc(C(=O)NC[C@](O)(c2cc(C3(C(N)=O)CC3)c(F)c(-c3cc(Cl)c(F)cc3F)n2)C2CC2)cc2cn(C(F)F)nc12 (single isomer, unassigned) [Example 9]
28 | < 1000 | COc1cc(C(=O)NC[C@](O)(c2cc(C(C)(C)O)c(F)c(-c3cc(Cl)c(F)cc3F)n2)C2CC2)cc2cc(Cl)c(C)nc12 [Example 57]
29 | < 1000 | COc1cc(C(=O)NC[C@@](O)(c2ccccc2)c2cc(C(C)(C)O)c(F)c(-c3cccc(Cl)c3Cl)n2)cc2cn(C3CC3)nc12 [Example 79]

same assay, conditions: MOI 0.005, 7 days incubation

Row | EC50 [nM] | Compound
30 | < 1000 | COc1cc(C(=O)NC[C@@](O)(c2ccccc2)c2cc(C(C)(C)O)c(Cl)c(-c3cc(Cl)c(F)cc3F)n2)cc2cn(C3CC3)nc12 [Example 144]
